Assay results: ChEMBL document CHEMBL1201862, “PubChem BioAssay data set” (2004)
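Test compounds were applied to cells in 96-well plates for 48 hours at 5 doses. The concentration for 50% growth inhibition is given as GI50.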 The source made the active and inactive calls. No stated cut-off is given here; in the data, active = GI50 up to about 1.1 µM and inactive = higher.

What was measured:
Assay in all cases: NCI anticancer screen, dose series, 48 h
786-0 = system: 786-0
A498 = system: A498
A549 = system: A549
ACHN = system: ACHN
BT-549 = system: BT-549
CAKI-1 = system: CAKI-1
CCRF-CEM = system: CCRF-CEM
COLO 205 = system: COLO 205
DU-145 = system: DU-145
EKVX = system: EKVX
HCC 2998 = system: HCC 2998
HCT-116 = system: HCT-116
HCT-15 = system: HCT-15
HL-60 = system: HL-60
HOP-62 = system: HOP-62
HOP-92 = system: HOP-92
HT-29 = system: HT-29
IGROV-1 = system: IGROV-1
K562 = system: K562
KM12 = system: KM12
LOX IMVI = system: LOX IMVI
M14 = system: M14
MCF7 = system: MCF7
MDA-MB-231 = system: MDA-MB-231
MDA-MB-435 = system: MDA-MB-435
MDA-N = system: MDA-N
MOLT-4 = system: MOLT-4
Malme-3M = system: Malme-3M
NCI-H226 = system: NCI-H226
NCI-H23 = system: NCI-H23
NCI-H460 = system: NCI-H460
NCI-H522 = system: NCI-H522
NCI/ADR-RES = system: NCI/ADR-RES
OVCAR-3 = system: OVCAR-3
OVCAR-4 = system: OVCAR-4
OVCAR-5 = system: OVCAR-5
OVCAR-8 = system: OVCAR-8
PC-3 = system: PC-3
RPMI-8226 = system: RPMI-8226
RXF 393 = system: RXF 393
SF-268 = system: SF-268
SF-295 = system: SF-295
SF-539 = system: SF-539
SK-MEL-28 = system: SK-MEL-28
SK-MEL-2 = system: SK-MEL-2
SK-MEL-5 = system: SK-MEL-5
SK-OV-3 = system: SK-OV-3
SN12C = system: SN12C
SNB-19 = system: SNB-19
SNB-75 = system: SNB-75
SW-620 = system: SW-620
T47D = system: T47D
TK-10 = system: TK-10
U-251 = system: U-251
UACC-257 = system: UACC-257
UACC-62 = system: UACC-62
UO-31 = system: UO-31
SR = system: SR

Q: CCOC(=O)[C@@H]1C2C(=C[C@H]3[C@H]1C(=O)N1CCCC[C@H]31)CCCN2C(=O)OCc1ccccc1 (some centres not stated) was tested. Which GI50 (786-0) did it give?
A: Its GI50 is 54.5 µM (inactive).

Q: And the GI50 (A498)?
A: Its GI50 is 23.6 µM (inactive).

Q: What about the GI50 (A549) of the same compound?
A: Its GI50 is 36.1 µM (inactive).

Q: And the GI50 (ACHN)?
A: Its GI50 is 29.9 µM (inactive).

Q: And the GI50 (BT-549)?
A: The GI50 was 24.7 µM (inactive).

Q: What about the GI50 (CAKI-1) of the same compound?
A: Its GI50 is 43.1 µM (inactive).

Q: And the GI50 (CCRF-CEM)?
A: The GI50 was 22.3 µM (inactive).

Q: What about the GI50 (COLO 205) of the same compound?
A: Its GI50 is 23.9 µM (inactive).

Q: And the GI50 (DU-145)?
A: The GI50 was 39.1 µM (inactive).

Q: And the GI50 (EKVX)?
A: The GI50 was 38.3 µM (inactive).

Q: And the GI50 (HCC 2998)?
A: Its GI50 is 15.1 µM (inactive).

Q: What about the GI50 (HCT-116) of the same compound?
A: The GI50 was 35.6 µM (inactive).

Q: What about the GI50 (HCT-15) of the same compound?
A: The GI50 was 32.8 µM.

Q: And the GI50 (HL-60)?
A: Its GI50 is 20.8 µM (inactive).

Q: And the GI50 (HOP-62)?
A: The GI50 was 42.5 µM (inactive).

Q: And the GI50 (HOP-92)?
A: The GI50 was 76.4 µM (inactive).

Q: What about the GI50 (HT-29) of the same compound?
A: The GI50 was 30.3 µM (inactive).

Q: And the GI50 (IGROV-1)?
A: The GI50 was 41.3 µM (inactive).

Q: And the GI50 (K562)?
A: The GI50 was 30.8 µM (inactive).

Q: What about the GI50 (KM12) of the same compound?
A: The GI50 was 36.2 µM (inactive).

Q: And the GI50 (LOX IMVI)?
A: The GI50 was 33.3 µM (inactive).

Q: And the GI50 (M14)?
A: Its GI50 is 38.8 µM (inactive).

Q: And the GI50 (MCF7)?
A: The GI50 was 29.5 µM (inactive).

Q: And the GI50 (MDA-MB-231)?
A: The GI50 was > 100 µM (inactive).

Q: What about the GI50 (MDA-MB-435) of the same compound?
A: The GI50 was 35 µM (inactive).

Q: What about the GI50 (MDA-N) of the same compound?
A: The GI50 was 35.7 µM (inactive).

Q: And the GI50 (MOLT-4)?
A: The GI50 was 14.3 µM (inactive).

Q: What about the GI50 (Malme-3M) of the same compound?
A: Its GI50 is 28.5 µM (inactive).

Q: And the GI50 (NCI-H226)?
A: Its GI50 is 70.5 µM (inactive).

Q: And the GI50 (NCI-H23)?
A: Its GI50 is 29.3 µM (inactive).

Q: What about the GI50 (NCI-H460) of the same compound?
A: The GI50 was 23.8 µM (inactive).

Q: And the GI50 (NCI-H522)?
A: The GI50 was 18.5 µM (inactive).

Q: And the GI50 (NCI/ADR-RES)?
A: The GI50 was 26.2 µM (inactive).

Q: What about the GI50 (OVCAR-3) of the same compound?
A: Its GI50 is 30.1 µM (inactive).

Q: And the GI50 (OVCAR-4)?
A: Its GI50 is 37.8 µM (inactive).

Q: What about the GI50 (OVCAR-5) of the same compound?
A: The GI50 was 76.4 µM (inactive).

Q: What about the GI50 (OVCAR-8) of the same compound?
A: The GI50 was 35.5 µM (inactive).

Q: What about the GI50 (PC-3) of the same compound?
A: Its GI50 is 28.1 µM (inactive).

Q: And the GI50 (RPMI-8226)?
A: The GI50 was 20.2 µM (inactive).

Q: And the GI50 (RXF 393)?
A: Its GI50 is 47.8 µM (inactive).

Q: And the GI50 (SF-268)?
A: The GI50 was 23.3 µM (inactive).

Q: What about the GI50 (SF-295) of the same compound?
A: The GI50 was 32.5 µM (inactive).

Q: What about the GI50 (SF-539) of the same compound?
A: Its GI50 is 43.6 µM (inactive).

Q: And the GI50 (SK-MEL-28)?
A: Its GI50 is 59.7 µM (inactive).

Q: What about the GI50 (SK-MEL-2) of the same compound?
A: The GI50 was 22.8 µM (inactive).

Q: And the GI50 (SK-MEL-5)?
A: The GI50 was 31.6 µM (inactive).

Q: And the GI50 (SK-OV-3)?
A: Its GI50 is 94.8 µM (inactive).

Q: What about the GI50 (SN12C) of the same compound?
A: The GI50 was 47.5 µM (inactive).

Q: And the GI50 (SNB-19)?
A: Its GI50 is > 100 µM (inactive).

Q: And the GI50 (SNB-75)?
A: Its GI50 is 75.7 µM (inactive).

Q: And the GI50 (SW-620)?
A: The GI50 was 52.2 µM (inactive).

Q: And the GI50 (T47D)?
A: The GI50 was 29.3 µM (inactive).

Q: What about the GI50 (TK-10) of the same compound?
A: Its GI50 is 75.9 µM (inactive).

Q: And the GI50 (U-251)?
A: The GI50 was 43.6 µM (inactive).

Q: What about the GI50 (UACC-257) of the same compound?
A: Its GI50 is 37.6 µM (inactive).

Q: And the GI50 (UACC-62)?
A: The GI50 was 17.4 µM (inactive).

Q: And the GI50 (UO-31)?
A: Its GI50 is 32.8 µM (inactive).

Q: With COc1cc(C2=C(C#N)C(N)OC3=C2COc2ccccc23)cc(OC)c1OC (configuration not stated) as the compound, how does the GI50 (A498) read?
A: Its GI50 is 24.5 µM (inactive).

Q: And the GI50 (A549)?
A: The GI50 was 17.5 µM (inactive).

Q: What about the GI50 (ACHN) of the same compound?
A: Its GI50 is 12.6 µM (inactive).

Q: What about the GI50 (BT-549) of the same compound?
A: Its GI50 is 42.8 µM (inactive).

Q: What about the GI50 (CCRF-CEM) of the same compound?
A: The GI50 was 0.938 µM (active).

Q: And the GI50 (COLO 205)?
A: The GI50 was > 100 µM (inactive).

Q: What about the GI50 (DU-145) of the same compound?
A: Its GI50 is 10.6 µM (inactive).

Q: What about the GI50 (EKVX) of the same compound?
A: Its GI50 is 16.2 µM (inactive).

Q: What about the GI50 (HCC 2998) of the same compound?
A: Its GI50 is 14.4 µM (inactive).

Q: And the GI50 (HCT-116)?
A: The GI50 was 16.7 µM (inactive).

Q: And the GI50 (HCT-15)?
A: The GI50 was greater than 100 µM.

Q: What about the GI50 (HL-60) of the same compound?
A: Its GI50 is > 100 µM (inactive).

Q: What about the GI50 (HOP-62) of the same compound?
A: The GI50 was 6.62 µM (inactive).

Q: What about the GI50 (HOP-92) of the same compound?
A: The GI50 was 40.8 µM (inactive).

Q: And the GI50 (HT-29)?
A: The GI50 was 77.1 µM (inactive).

Q: And the GI50 (IGROV-1)?
A: Its GI50 is 22.9 µM (inactive).

Q: And the GI50 (K562)?
A: Its GI50 is 78 µM (inactive).

Q: And the GI50 (KM12)?
A: The GI50 was 81.7 µM (inactive).

Q: And the GI50 (LOX IMVI)?
A: The GI50 was 35.5 µM (inactive).

Q: And the GI50 (M14)?
A: Its GI50 is 42 µM (inactive).

Q: What about the GI50 (MCF7) of the same compound?
A: Its GI50 is > 100 µM (inactive).

Q: What about the GI50 (MDA-MB-231) of the same compound?
A: Its GI50 is 15.2 µM (inactive).

Q: What about the GI50 (MDA-MB-435) of the same compound?
A: The GI50 was 34.3 µM (inactive).

Q: What about the GI50 (MDA-N) of the same compound?
A: The GI50 was > 100 µM (inactive).

Q: And the GI50 (MOLT-4)?
A: Its GI50 is 3.16 µM (inactive).

Q: And the GI50 (Malme-3M)?
A: The GI50 was 11.9 µM (inactive).

Q: And the GI50 (NCI-H226)?
A: The GI50 was 30.4 µM (inactive).

Q: What about the GI50 (NCI-H23) of the same compound?
A: Its GI50 is 33.9 µM (inactive).

Q: And the GI50 (NCI-H460)?
A: The GI50 was 19.4 µM (inactive).

Q: What about the GI50 (NCI/ADR-RES) of the same compound?
A: The GI50 was 25.2 µM (inactive).

Q: And the GI50 (OVCAR-3)?
A: Its GI50 is 14.2 µM (inactive).

Q: What about the GI50 (OVCAR-4) of the same compound?
A: The GI50 was 5.22 µM (inactive).

Q: What about the GI50 (OVCAR-5) of the same compound?
A: Its GI50 is > 100 µM (inactive).

Q: What about the GI50 (PC-3) of the same compound?
A: The GI50 was 16.6 µM (inactive).

Q: What about the GI50 (RPMI-8226) of the same compound?
A: The GI50 was 46.6 µM (inactive).

Q: What about the GI50 (SF-268) of the same compound?
A: The GI50 was 14.9 µM (inactive).

Q: What about the GI50 (SF-539) of the same compound?
A: Its GI50 is 20.4 µM (inactive).

Q: What about the GI50 (SK-MEL-28) of the same compound?
A: The GI50 was 24.8 µM (inactive).

Q: And the GI50 (SK-MEL-2)?
A: Its GI50 is 28.5 µM (inactive).

Q: What about the GI50 (SK-MEL-5) of the same compound?
A: The GI50 was 25.2 µM (inactive).

Q: And the GI50 (SK-OV-3)?
A: Its GI50 is 16.4 µM (inactive).

Q: And the GI50 (SN12C)?
A: The GI50 was 16.1 µM (inactive).

Q: What about the GI50 (SNB-19) of the same compound?
A: The GI50 was 9.29 µM (inactive).

Q: What about the GI50 (SR) of the same compound?
A: The GI50 was 19.5 µM (inactive).

Q: And the GI50 (SW-620)?
A: Its GI50 is 50.1 µM (inactive).

Q: What about the GI50 (TK-10) of the same compound?
A: The GI50 was 13.7 µM (inactive).

Q: What about the GI50 (U-251) of the same compound?
A: Its GI50 is 14.7 µM (inactive).

Q: What about the GI50 (UACC-257) of the same compound?
A: Its GI50 is 31.3 µM (inactive).

Q: And the GI50 (UACC-62)?
A: Its GI50 is 50.4 µM (inactive).

Q: And the GI50 (UO-31)?
A: Its GI50 is 4.15 µM (inactive).
